According to ChEMBL document CHEMBL5620439, “Talaromides A-C, Bioactive Cyclic Heptapeptides from Talaromyces siglerae Isolated from a Marine Sponge” (2024):
Calls of active or inactive are those of the source. The calls are words filed in the database; no cut-off is given here.

Assays:
Staphylococcus aureus [1] = experiment: Antimicrobial activity against methicillin sensitive Staphylococcus aureus CCARM 0205; type: functional, organism-based
Escherichia coli = experiment: Antimicrobial activity against Escherichia coli 2441; type: functional, organism-based
Staphylococcus aureus [2] = experiment: Antimicrobial activity against methicillin sensitive Staphylococcus aureus CCARM 0204; type: functional, organism-based
RAW264.7 = experiment: Inhibition of nitric oxide production in LPS-activated mouse RAW264.7 cells; type: functional, cell-based
Salmonella typhimurium = experiment: Antimicrobial activity against Salmonella typhimurium 2515; type: functional, organism-based; conditions: Salmonella enterica subsp. enterica serovar Typhimurium
[3] = test system: Staphylococcus epidermidis; experiment: Antimicrobial activity against Staphylococcus epidermidis 1917; type: functional, organism-based
PANC-1 [4] = experiment: Cytotoxicity against human PANC-1 cells assessed as reduction in cell viability at 10 to 100 uM incubated for 72 hrs by MTT assay; type: functional, cell-based; conditions: dose 10-100 µM
Staphylococcus aureus [5] = experiment: Antimicrobial activity against methicillin sensitive Staphylococcus aureus CCARM 3090; type: functional, organism-based
Bacillus subtilis = experiment: Antimicrobial activity against Bacillus subtilis 1021; type: functional, organism-based
Staphylococcus aureus [6] = experiment: Antimicrobial activity against methicillin sensitive Staphylococcus aureus CCARM 3635; type: functional, organism-based
PANC-1 [7] = experiment: Antimetastatic activity in human PANC-1 cells assessed as decrease in migration at 80 uM incubated for 48 hrs by scratch wound healing assay relative to control; type: functional; set-up: scale not given: the % may be the effect or the level left

Structure (SMILES)	Activity (Staphylococcus aureus [1])	Activity (Escherichia coli)	Activity (Staphylococcus aureus [2])	inhibition (RAW264.7)	Activity (Salmonella typhimurium)	Activity [3]	Activity (PANC-1 [4])	Activity (Staphylococcus aureus [5])	Activity (Bacillus subtilis)	Activity (Staphylococcus aureus [6])	Activity (PANC-1 [7])
CC[C@@H](C)[C@H]1NC(=O)c2ccccc2NC(=O)[C@@H]2CCCN2C(=O)[C@@H](CC(C)C)NC(=O)[C@H](C)NC(=O)[C@H]([C@@H](C)O)NC(=O)[C@@H](Cc2ccc(O)cc2)NC1=O	inactive	inactive	inactive	inactive	inactive	inactive	inactive	inactive	inactive	inactive	
CC[C@@H](C)[C@H]1NC(=O)c2ccccc2NC(=O)[C@@H]2CCCN2C(=O)[C@@H]([C@H](C)CC)NC(=O)[C@H](C)NC(=O)[C@H]([C@@H](C)O)NC(=O)[C@@H](Cc2ccc(O)cc2)NC1=O	inactive	inactive	inactive	inactive	inactive	inactive	inactive	inactive	inactive	inactive	48%
CC[C@@H](C)[C@H]1NC(=O)[C@H](C)NC(=O)[C@H]([C@@H](C)O)NC(=O)[C@@H](Cc2ccc(O)cc2)NC(=O)[C@@H](C(C)C)NC(=O)c2ccccc2NC(=O)[C@@H]2CCCN2C1=O	inactive	inactive	inactive	inactive	inactive	inactive	inactive	inactive	inactive	inactive	52%
